The Dmax is the greatest extent of degradation seen. A word on the DC50: it is the concentration at which degradation of the target reaches its halfway point. A high value points to a less potent degrader.

Results on 17 compounds are retold here after patent US20260062426A1, “CYCLIN DEPENDENT KINASE DEGRADERS AND METHODS OF USE THEREOF” (Differentiated Therapeutics Inc, priority 2023, published 2026).

The structures appear in SMILES notation.

What all share (format): cell-based
In test [1] the target is T1, CDK9 (Homo sapiens, UniProt P50750).
T1 construct: host or cells: HEK293
Description: CDK9 HIBIT PQ (protein quantification), degradation. As to conditions: for Dmax: Max = Maximum; for DC50: PQ = Protein Quantification. The procedure, abridged: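 HEK293 cells bearing HiBiT-tagged CDK9 were cultured in DMEM with 10% FBS, plated into 384-well plates at 1.6×10^5 cells/well in 50 uL, and left overnight at 37° C and 5% CO2. A HiBiT assay measured CDK9 protein after compound treatment, with 0.1% DMSO-treated cells as the high control and culture medium alone as the low control. These readings gave the maximal degradation, Dmax and DC50.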

Test [2] addresses T2, CDK2 (Homo sapiens, UniProt P24941).
T2 construct: host or cells: HEK293
Kind of test: CDK2 HIBIT PQ (protein quantification), degradation. The following applies: for CDK2 HIBIT PQ Max (%): Max = Maximum; for DC50: PQ = Protein Quantification. The procedure, abridged: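 DC50 and maximal degradation were derived from a HiBiT lytic readout in HEK293 cells carrying HiBiT-tagged CDK2. Cells were seeded in 384-well plates at 1.6×10^5 cells/well in 50 uL of DMEM with 10% FBS, incubated overnight at 37° C and 5% CO2, treated with compound for 6 hours, and then given 20 μL of HiBiT reagent with 20 minutes of shaking at room temperature before an EnVision reading. Wells with 0.1% DMSO served as the high control and wells with medium only as the low control.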

The target in test [3] is T3, CCNE1 (Homo sapiens, UniProt P24864+P24941).
T3 construct: host or cells: HEK293
Description: CCNE1 HIBIT PQ (protein quantification), degradation. The following applies: for CCNE1 HIBIT PQ Max (%): Max = Maximum; for DC50: PQ = Protein Quantification. In outline:
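HEK293 cells with HiBiT-tagged CCNE1 were cultured in EMEM containing 10% FBS, plated at 1.6×10⁵ cells/well in 50 uL in 384-well plates and left overnight at 37° C with 5% CO₂. After 6 hours of compound exposure, a HiBiT assay measured CCNE1 protein, with 0.1% DMSO-treated cells as the high control and medium alone as the low control. DC50 and maximal degradation came from these readings.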

T1 sequence (P50750 whole entry): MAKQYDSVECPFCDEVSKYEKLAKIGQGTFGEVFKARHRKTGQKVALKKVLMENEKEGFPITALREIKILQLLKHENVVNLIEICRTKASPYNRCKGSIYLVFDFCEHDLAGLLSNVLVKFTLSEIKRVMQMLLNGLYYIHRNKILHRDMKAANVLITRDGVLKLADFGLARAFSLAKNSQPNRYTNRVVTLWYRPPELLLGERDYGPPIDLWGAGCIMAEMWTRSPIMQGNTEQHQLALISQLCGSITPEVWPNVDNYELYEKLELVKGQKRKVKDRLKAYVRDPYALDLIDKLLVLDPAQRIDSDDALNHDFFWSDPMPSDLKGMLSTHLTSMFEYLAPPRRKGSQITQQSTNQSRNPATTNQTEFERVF

Take `CC(C)Oc1c(-c2cn[nH]c2)ncn2nc(Nc3ccc(S(=O)(=O)c4cccc(C[C@H]5C[C@@H](c6ccc7c(c6)CN([C@H]6CCC(=O)NC6=O)C7=O)C5)c4)cc3F)nc12` (stereo in doubt) [Compound 81, (S)-3-(5-((1r,3R)-3-(3-((3-fluoro-4-((8-isopropoxy-7-(1H-pyrazol-4-yl)-[1,2,4]triazolo[1,5-c]pyrimidin-2-yl)amino)phenyl)sulfonyl)benzyl)cyclobutyl)-1-oxoisoindolin-2-yl)piperidine-2,6-dione]: in test [1], the Dmax was found to be 1%. In addition, in test [2], the “CDK2 HIBIT PQ Max (%)” value is 86% and the DC50 is 24.2 nM. Besides, in test [3], the “CCNE1 HIBIT PQ Max (%)” value is reported as 57% and half-maximal degradation (DC50) was put at 62.8 nM.
Take `CC(C)Oc1c(-c2cn[nH]c2)ncn2nc(Nc3ccc(S(=O)(=O)c4cccc(C[C@H]5C[C@H](c6ccc7c(c6)CN([C@H]6CCC(=O)NC6=O)C7=O)C5)c4)cc3F)nc12` (stereo in doubt) [Compound 82, (S)-3-(5-((1s,3S)-3-(3-((3-fluoro-4-((8-isopropoxy-7-(1H-pyrazol-4-yl)-[1,2,4]triazolo[1,5-c]pyrimidin-2-yl)amino)phenyl)sulfonyl)benzyl)cyclobutyl)-1-oxoisoindolin-2-yl)piperidine-2,6-dione]: the Dmax in test [1] worked out at 27%. Further, in test [2], the “CDK2 HIBIT PQ Max (%)” value was determined as 88% and the DC50 amounted to 23.4 nM. Moreover, in test [3], the “CCNE1 HIBIT PQ Max (%)” value was 52% and the 50% degradation concentration (DC50) was 100 nM.
As to `CC(C)Oc1c(-c2cn[nH]c2)ncn2nc(NC3CCN(S(=O)(=O)c4cccc(CN5CCC(c6ccc7c(N8CCC(=O)NC8=O)nn(C)c7c6)CC5)c4)CC3)nc12` [Compound 1, 1-(6-(1-(3-((4-((8-isopropoxy-7-(1H-pyrazol-4-yl)-[1,2,4]triazolo[1,5-c]pyrimidin-2-yl)amino)piperidin-1-yl)sulfonyl)benzyl)piperidin-4-yl)-1-methyl-1H-indazol-3-yl)dihydropyrimidine-2,4(1H,3H)-dione], in test [1], the Dmax amounted to 104% and the DC50 was 2.98 nM. In test [2], the “CDK2 HIBIT PQ Max (%)” value came out at 93% and the half-maximal degradation concentration (DC50) is 1.62 nM. Besides, in test [3], the “CCNE1 HIBIT PQ Max (%)” value came to 92% and half-maximal degradation (DC50) was put at 1.94 nM.
`CC(C)Oc1c(-c2cn[nH]c2)ncn2nc(N[C@H]3CCN(S(=O)(=O)c4cccc(CN5CCC(c6ccc7c(N8CCC(=O)NC8=O)nn(C)c7c6)CC5)c4)C[C@H]3C)nc12` [Compound 5]: in test [1], the Dmax stood at 104% and the half-maximal degradation concentration (DC50) came to 3.91 nM. Further, in test [2], the “CDK2 HIBIT PQ Max (%)” value is 92% and the DC50 was 1.67 nM. In test [3], the “CCNE1 HIBIT PQ Max (%)” value stood at 94% and the half-maximal degradation concentration (DC50) was 3.16 nM.
For `CC(C)Oc1c(-c2cn[nH]c2)ncn2nc(N[C@H]3CCN(S(=O)(=O)N(C)CCCN4CCC(c5cccc6c5n(C)c(=O)n6C5CCC(=O)NC5=O)CC4)C[C@H]3C)nc12` (some centres unmarked) [Compound 7], in test [1], the Dmax came out at 91% and the DC50 turned out to be 2.13 nM. For the same compound, in test [2], the “CDK2 HIBIT PQ Max (%)” value is 92% and the DC50 was found to be 1.07 nM. In test [3], the “CCNE1 HIBIT PQ Max (%)” value is on record as 96% and the 50% degradation concentration (DC50) stood at 0.76 nM.
On to `CC(C)Oc1c(-c2cn[nH]c2)ncn2nc(Nc3ccc(S(=O)(=O)c4cccc(CN5CCC(c6ccc7c(N8CCC(=O)NC8=O)nn(C)c7c6)CC5)c4)cc3F)nc12` [Compound 8, 1-(6-(1-(3-((3-fluoro-4-((8-isopropoxy-7-(1H-pyrazol-4-yl)-[1,2,4]triazolo[1,5-c]pyrimidin-2-yl)amino)phenyl)sulfonyl)benzyl)piperidin-4-yl)-1-methyl-1H-indazol-3-yl)dihydropyrimidine-2,4(1H,3H)-dione], for which, in test [1], the Dmax amounted to 91% and the DC50 came out at 10.2 nM. In addition, in test [2], the “CDK2 HIBIT PQ Max (%)” value worked out at 92% and the half-maximal degradation concentration (DC50) is 1.58 nM. Also, in test [3], the “CCNE1 HIBIT PQ Max (%)” value is 81% and the DC50 came out at 7.36 nM.
For the compound `CC(C)Oc1c(-c2cn[nH]c2)ncn2nc(Nc3ccc(S(=O)(=O)N(C)CCCN4CCC(c5ccc6c(N7CCC(=O)NC7=O)nn(C)c6c5)CC4)cc3F)nc12` [Compound 15], in test [1], the Dmax stood at 99% and the half-maximal degradation concentration (DC50) came to 1.37 nM. In addition, in test [2], the “CDK2 HIBIT PQ Max (%)” value came out at 95% and the DC50 was 0.35 nM. Besides, in test [3], the “CCNE1 HIBIT PQ Max (%)” value is reported as 93% and it took 0.72 nM to reach half-maximal degradation (DC50).
In the case of `CC(C)Oc1c(-c2cn[nH]c2)ncn2nc(Nc3ccc(S(=O)(=O)N(C)CCCN4CCC(c5cccc6c(N7CCC(=O)NC7=O)nn(C)c56)CC4)cc3F)nc12` [Compound 24], the Dmax in test [1] came to 14%. Moreover, in test [2], the “CDK2 HIBIT PQ Max (%)” value was 94% and half-maximal degradation (DC50) was put at 0.6 nM. For the same compound, in test [3], the “CCNE1 HIBIT PQ Max (%)” value is 88% and it took 3.14 nM to reach half-maximal degradation (DC50).
For `CC(C)Oc1c(-c2cn[nH]c2)ncn2nc(Nc3ccc(S(=O)(=O)c4cccc(CN5CCC(c6cccc7c(N8CCC(=O)NC8=O)nn(C)c67)CC5)c4)cc3F)nc12` [Compound 26] the same measures were 13%, 84%, 3.8 nM, 51% and 2.4 nM.
For the compound `CC(C)Oc1c(-c2cn[nH]c2)ncn2nc(Nc3ccc(S(=O)(=O)N4CC5(CCCN(CCOc6cccc7c6n(C)c(=O)n7C6CCC(=O)NC6=O)C5)C4)cc3F)nc12` (centres unmarked) [Compound 27], the Dmax in test [1] stood at 6%. In test [2], the “CDK2 HIBIT PQ Max (%)” value worked out at 66% and it took 6.3 nM to reach half-maximal degradation (DC50). For the same compound, the “CCNE1 HIBIT PQ Max (%)” value in test [3] amounted to 10%.
Turning to `CC(C)Oc1c(-c2cn[nH]c2)ncn2nc(Nc3ccc(S(=O)(=O)c4cccc(C[C@H]5C[C@@H](c6ccc7c(c6)CN(C6CCC(=O)NC6=O)C7=O)C5)c4)cc3F)nc12` (some centres unmarked) [Compound 29, 3-{1-oxo-5-[(1s,3s)-3-{[3-(3-fluoro-4-{[8-isopropoxy-7-(1H-pyrazol-4-yl)-[1,2,4]triazolo[1,5-c]pyrimidin-2-yl]amino}benzenesulfonyl)phenyl]methyl}cyclobutyl]-3H-isoindol-2-yl}piperidine-2,6-dione], in test [1], the Dmax stood at 12%. Moreover, in test [2], the “CDK2 HIBIT PQ Max (%)” value came out at 94% and the DC50 came to 8 nM. In test [3], the “CCNE1 HIBIT PQ Max (%)” value stood at 78% and the DC50 came to 18.7 nM.
Regarding `CC(C)Oc1c(-c2cn[nH]c2)ncn2nc(Nc3ccc(S(=O)(=O)c4cccc(C[C@H]5C[C@H](c6ccc7c(c6)CN(C6CCC(=O)NC6=O)C7=O)C5)c4)cc3F)nc12` (some centres unmarked) [Compound 30], in test [1], the Dmax amounted to 54% and half-maximal degradation (DC50) was put at 147 nM. Also, in test [2], the “CDK2 HIBIT PQ Max (%)” value was found to be 96% and the DC50 is 7.2 nM. Further, in test [3], the “CCNE1 HIBIT PQ Max (%)” value is recorded as 79% and it took 29.5 nM to reach half-maximal degradation (DC50).
Regarding `CC(C)Oc1c(-c2cn[nH]c2)ncn2nc(Nc3ccc(S(=O)(=O)c4cccc(CC5CC(c6ccc7c(N8CCC(=O)NC8=O)nn(C)c7c6)C5)c4)cc3F)nc12` (centres unmarked) [Compound 33, 1-(6-(3-(3-((3-fluoro-4-((8-isopropoxy-7-(1H-pyrazol-4-yl)-[1,2,4]triazolo[1,5-c]pyrimidin-2-yl)amino)phenyl)sulfonyl)benzyl)cyclobutyl)-1-methyl-1H-indazol-3-yl)dihydropyrimidine-2,4(1H,3H)-dione], the Dmax in test [1] worked out at 9%. Moreover, in test [2], the “CDK2 HIBIT PQ Max (%)” value came to 91% and the DC50 turned out to be 19 nM. Besides, in test [3], the “CCNE1 HIBIT PQ Max (%)” value turned out to be 47%.
Turning to `CC(C)Oc1c(-c2cn[nH]c2)ncn2nc(Nc3ccc(S(=O)(=O)c4cccc(N5CCC6C5CN6c5ccc6c(c5)CN(C5CCC(=O)NC5=O)C6=O)c4)cc3F)nc12` (centres unmarked) [Compound 34, 3-(5-{2-[3-(3-fluoro-4-{[8-isopropoxy-7-(1H-pyrazol-4-yl)-[1,2,4]triazolo[1,5-c]pyrimidin-2-yl]amino}benzenesulfonyl)phenyl]-2,6-diazabicyclo[3.2.0]heptan-6-yl}-1-oxo-3H-isoindol-2-yl)piperidine-2,6-dione], the Dmax in test [1] turned out to be 31%. In test [2], the “CDK2 HIBIT PQ Max (%)” value was 86% and the DC50 was determined as 5.6 nM. Further, in test [3], the “CCNE1 HIBIT PQ Max (%)” value was found to be 62% and the DC50 came to 14.1 nM.
`CC(C)Oc1c(-c2cn[nH]c2)ncn2nc(Nc3ccc(S(=O)(=O)c4cccc(N5CCCC6C5CN6c5ccc6c(c5)CN(C5CCC(=O)NC5=O)C6=O)c4)cc3F)nc12` (centres unmarked) [Compound 35]: the Dmax in test [1] was 17%. In addition, in test [2], the “CDK2 HIBIT PQ Max (%)” value was determined as 79% and the 50% degradation concentration (DC50) turned out to be 6.5 nM. The “CCNE1 HIBIT PQ Max (%)” value in test [3] came out at 25%.
On to `CC(C)Oc1c(-c2cn[nH]c2)ncn2nc(Nc3ccc(S(=O)(=O)N4CCC5(CCN(C6CCN(c7ccc8c(c7)n(C)c(=O)n8C7CCC(=O)NC7=O)CC6)C5)C4)cc3F)nc12` (centres unmarked) [Compound 36], for which, in test [1], the Dmax worked out at 87% and the half-maximal degradation concentration (DC50) came out at 57.6 nM. In addition, in test [2], the “CDK2 HIBIT PQ Max (%)” value is on record as 89% and the DC50 is 2.9 nM. Moreover, in test [3], the “CCNE1 HIBIT PQ Max (%)” value came out at 63% and half-maximal degradation (DC50) was put at 22.1 nM.
Regarding `CC(C)Oc1c(-c2cn[nH]c2)ncn2nc(Nc3ccc(S(=O)(=O)N4CCC5(CCCN5C5CCN(c6ccc7c(c6)n(C)c(=O)n7C6CCC(=O)NC6=O)CC5)C4)cc3F)nc12` (centres unmarked) [Compound 37], in test [1], the Dmax came to 51% and the 50% degradation concentration (DC50) is 43.7 nM. Besides, in test [2], the “CDK2 HIBIT PQ Max (%)” value was determined as 84% and the DC50 was 2.9 nM. Further, the “CCNE1 HIBIT PQ Max (%)” value in test [3] is listed as 30%.
